Measurements: PMC6602958, “Pharmacokinetics of anti-infectious reagents in silkworms” (Scientific Reports, 2019)
≈ marks a conversion by molar mass, not a printed value. Read-outs that look alike come from different tables or passages of the source. *1 amine or outer side, *2 acyl side, *3 side chain or, on linkers, in order; H or OH if unused. Where a SMILES comes first, the peptide text is derived from it. Bridges are numbered along the chain shown (N, C = ends). [ ]: non-standard residue; d: D form. The star is where a group is joined. hTyr(3S-OH,4S-OH,3'-OSO3H) = N[C@H](C(=O)O)[C@H](O)[C@@H](O)c1ccc(O)c(OS(=O)(=O)O)c1; Orn(4R-OH,5R-OH) = O=C([C@H](C[C@@H](O)[C@@H](O)N[*:3])N[*:1])[*:2]; Pro(3S-OH,4S-Me) = C[C@H]1CN[C@H](C(=O)O)[C@H]1O; X1 = CCCCCOc1ccc(-c2cc(-c3ccc(C(=O)*)cc3)no2)cc1; Gln(3R-OH) = NC(=O)C[C@@H](O)[C@H](N)C(=O)O; Hyp = O=C(O)[C@@H]1C[C@@H](O)CN1

Columns and labels:
[1] = Pharmacokinetics of antibiotics in silkworm hemolymph after injection (HPLC)
Description: Antibiotics were injected into silkworm hemolymph and hemolymph was collected by cutting the legs at the indicated time.
Antibiotics dissolved in saline were injected into the hemolymph of 5th instar silkworms using a 1-mL syringe attached to a 27 G needle. Hemolymph was harvested from abdominal appendages by cutting them with scissors at the indicated time-points after administration, and mixed with an equal volume of acetone. Samples were centrifuged at 15,000 rpm for 5 min at 4 °C, and the supernatants were evaporated with a centrifuge evaporator[18]. The dried materials were dissolved in 50% methanol and filtrated through a 0.45-µm filter. […] The amount of antibiotics in the sample was quantified from the peak area of the chromatogram.

[2] = design: method as in PMID 15256761; settings: rat, dose 1 mg/kg; cited from earlier work
[3] = mammal, dose 8 mg/kg; cited from earlier work
cytochrome P450 [4] = assay: Metabolism of luciferin derivatives in cultured silkworm midgut (P450-Glo, luminometer); assay type: in vitro ADME, Bombyx mori (silkworm); settings: silkworm midgut incubated with luciferin substrate at 30 °C
Description: Silkworms (5th instar, 5 days) were dissected in a buffer (10 mM HEPES/NaOH, 0.9% NaCl, pH 7.9), and isolated organs were incubated with 3 mL TC-100 medium containing 10% fetal bovine serum, 50 µg/ml gentamicin, and substrates for the metabolic reaction. Whole samples (medium and organ) were homogenized and extracted by equal volumes of acetone followed by evaporation. Extracted samples were dissolved in 50 mM NaOAc buffer and treated with beta-glucosidase to measure the fluorescence of metabolized 7-ethoxycoumarin[6].

Candida albicans [5] = assay: Antifungal activity (MIC) by micro dilution with or without silkworm hemolymph; assay type: cell-based
Description: Antimicrobial and antifungal activities of each compound were measured by a micro dilution method[19],[20]. To measure protein binding to antifungal activity, silkworm hemolymph was collected by cutting the pseudopodium using scissors, and centrifuged at 3000 rpm for 5 min at 4 °C.

Candida albicans [6] = assay: Silkworm infection model with Candida albicans (ED50); assay type: in vivo, Bombyx mori (silkworm)
[7] = dog, cited from earlier work
[8] = Protein-binding capacity in silkworm hemolymph (filter unit, HPLC); settings: silkworm hemolymph
cytochrome P450 [9] = assay: 7-ethoxycoumarin deethylation activity in silkworm tissue culture (fluorometry); assay type: in vitro ADME, Bombyx mori (silkworm); settings: midgut incubated with 7-ethoxycoumarin and cimetidine at 30 °C
Description: Figure 2 Tissue specificity of 7-ethoxycoumarin deethylation activity in silkworm. (A) The midgut, fat body, silk gland, and Malpighian tubule were extirpated from silkworms and incubated in medium containing 7-ethoxycoumarin at 30 °C. Medium was collected, extracted by acetone, and evaporated. Samples […] in 50 mM NaOAc buffer (pH 6.0) were treated with beta-glucosidase. The amount of 7-hydroxycomarin, a metabolite, was determined by fluorometry. (B) Inhibition of 7-ethoxycoumarin deethylation by cimetidine in the silkworm midgut. Silkworm midgut was incubated in medium containing 7-ethoxycoumarin and cimetidine at 30 °C. Samples were collected, extracted by acetone, and treated with beta-glucosidase. The amount of 7-hydroxycomarin was determined by fluorometry.
Samples for HPLC were dissolved in 50% methanol.

[10] = 1 min after injection, raw data of Fig. 1
[11] = 5 min after injection, raw data of Fig. 1
[12] = 45 min after injection, raw data of Fig. 1
[13] = 60 min after injection, raw data of Fig. 1
[14] = 90 min after injection, raw data of Fig. 1
[15] = 120 min after injection, raw data of Fig. 1
[16] = 180 min after injection, raw data of Fig. 1
[17] = 240 min after injection, raw data of Fig. 1
[18] = after administration into hemolymph, alpha and beta phase, two-compartment model
[19] = silkworm, injection into hemolymph, two-compartment model, dose per compound 10-50 mg/kg

With `CCCCCOc1ccc(-c2cc(-c3ccc(C(=O)N[C@H]4C[C@@H](O)[C@@H](O)NC(=O)[C@@H]5[C@@H](O)[C@@H](C)CN5C(=O)[C@H]([C@H](O)CC(N)=O)NC(=O)[C@H]([C@H](O)[C@@H](O)c5ccc(O)c(OS(=O)(=O)O)c5)NC(=O)[C@@H]5C[C@@H](O)CN5C(=O)[C@H]([C@@H](C)O)NC4=O)cc3)no2)cc1` [Micafungin] (X1-[Orn(4R-OH,5R-OH)]T[Hyp][hTyr(3S-OH,4S-OH,3'-OSO3H)][Gln(3R-OH)][Pro(3S-OH,4S-Me)]; lactam 1-C) the “HPLC peak area in hemolymph” value [1, 10] was 2078182, the “HPLC peak area in hemolymph” value [1, 11] was 1273864 and the “HPLC peak area in hemolymph” value ([1]; 20 min after injection, raw data of Fig. 1) was 874882. The “HPLC peak area in hemolymph” value [1, 12] was 1057083, the “HPLC peak area in hemolymph” value [1, 13] was 1430059 and the “HPLC peak area in hemolymph” value ([1]; 75 min after injection, raw data of Fig. 1) was 1093500. The “HPLC peak area in hemolymph” value [1, 14] was 1117482, the “HPLC peak area in hemolymph” value [1, 15] was 1017294 and the “HPLC peak area in hemolymph” value ([1]; 150 min after injection, raw data of Fig. 1) was 1043908. For the same compound, the “HPLC peak area in hemolymph” value [1, 16] was 936752, the “HPLC peak area in hemolymph” value [1, 17] was 1002362 and the “HPLC peak area in hemolymph” value ([1]; 360 min after injection, raw data of Fig. 1) was 970304. The “Time-course of the decrease in concentration in hemolymph (in words)” value (“Time-course of the decrease” below) [1, 18] was “biphasic”, the half-life ([1]; in vivo) was 720 min and the “Cltot (total body clearance)” value [1, 19] was 0.03 mL/g/h. For the same compound, the Cltot [2] was 0.07 mL/g/h, the Vdss [2] was 0.4 mL/g and the t1/2 [2] was 5.0 h.
In the case of `CN[C@H](CC(C)C)C(=O)N[C@H]1C(=O)N[C@@H](CC(N)=O)C(=O)N[C@H]2C(=O)N[C@H]3C(=O)N[C@H](C(=O)N[C@H](C(=O)O)c4cc(O)cc(O)c4-c4cc3ccc4O)[C@H](O)c3ccc(c(Cl)c3)Oc3cc2cc(c3O[C@@H]2O[C@H](CO)[C@@H](O)[C@H](O)[C@H]2O[C@H]2C[C@](C)(N)[C@H](O)[C@H](C)O2)Oc2ccc(cc2Cl)[C@H]1O` [Vancomycin], the “HPLC peak area in hemolymph” value ([1]; 0 min after injection, raw data of Fig. 1) is reported as 6413329, the “HPLC peak area in hemolymph” value [1, 10] is reported as 7258474 and the “HPLC peak area in hemolymph” value [1, 11] is reported as 5965159. The “HPLC peak area in hemolymph” value ([1]; 10 min after injection, raw data of Fig. 1) was 4477743, the “HPLC peak area in hemolymph” value ([1]; 15 min after injection, raw data of Fig. 1) was 4233708 and the “HPLC peak area in hemolymph” value ([1]; 30 min after injection, raw data of Fig. 1) was 5070602. The “HPLC peak area in hemolymph” value [1, 12] was 4520231, the “HPLC peak area in hemolymph” value [1, 13] was 4399183 and the “HPLC peak area in hemolymph” value [1, 14] was 3764336. The “HPLC peak area in hemolymph” value [1, 15] was 4979100, the “HPLC peak area in hemolymph” value [1, 16] was 4348972 and the “HPLC peak area in hemolymph” value [1, 17] was 4148058. For the same compound, the “Time-course of the decrease” value [1, 18] was “biphasic”, the half-life ([1]; in vivo) was 780 min and the “Cltot (total body clearance)” value [1, 19] was 0.03 mL/g/h. For the same compound, the Cltot [3] was 0.08 mL/g/h, the Vdss [3] was 0.6 mL/g and the t1/2 [3] was 2.6 h.
For `O=C(O)C1CSC(c2nc3ccc(OCc4c(F)c(F)c(F)c(F)c4F)cc3s2)=N1` (centres unmarked) [Luciferin-PFBE], the “Production of luciferin (RFU/organ)” value (cytochrome P450 [4]) was 229,000 RFU/organ.
With `OC(Cn1cncn1)(Cn1cncn1)c1ccc(F)cc1F` [Fluconazole] the half-life ([1]; hemolymph) was 720 min, the “Cltot (total body clearance)” value ([1]; in vivo) was 0.02 mL/g/h and the “Time-course of the decrease” value ([1]; in vivo) was “biphasic”. The “HPLC peak area in hemolymph” value ([1]; silkworm (Bombyx mori), in vivo, 0.1 min) was 4424583, the “HPLC peak area in hemolymph” value ([1]; silkworm (Bombyx mori), in vivo, 1 min) was 3714240 and the “HPLC peak area in hemolymph” value ([1]; silkworm (Bombyx mori), in vivo, 5 min) was 1821531. The “HPLC peak area in hemolymph” value ([1]; silkworm (Bombyx mori), in vivo, 10 min) was 2367593, the “HPLC peak area in hemolymph” value ([1]; silkworm (Bombyx mori), in vivo, 20 min) was 2257323 and the “HPLC peak area in hemolymph” value ([1]; silkworm (Bombyx mori), in vivo, 30 min) was 2040721. The “HPLC peak area in hemolymph” value ([1]; silkworm (Bombyx mori), in vivo, 60 min) was 1663340, the “HPLC peak area in hemolymph” value ([1]; silkworm (Bombyx mori), in vivo, 105 min) was 1575678 and the “HPLC peak area in hemolymph” value ([1]; silkworm (Bombyx mori), in vivo, 120 min) was 1440231. For the same compound, the “HPLC peak area in hemolymph” value ([1]; silkworm (Bombyx mori), in vivo, 180 min) was 1474050, the “HPLC peak area in hemolymph” value ([1]; silkworm (Bombyx mori), in vivo, 240 min) was 1455753 and the “HPLC peak area in hemolymph” value ([1]; silkworm (Bombyx mori), in vivo, 360 min) was 1088734. For the same compound, the MIC (Candida albicans [5]; read-out: MIC with 10% hemolymph (B), with 10% silkworm hemolymph) was 3.2 µg/mL (≈ 10.4 µM), the MIC (Candida albicans [5]; without silkworm hemolymph, read-out: MIC without hemolymph (A)) was 0.4 µg/mL (≈ 1.31 µM) and the “Therapeutic effect in the silkworm infection model (in words)” value (Candida albicans [6]; silkworm infection model) was “potent therapeutic effects at a low dose”. The ED50 (Candida albicans [6]; silkworm infection model with Candida albicans) was 0.7 mg/kg, the Vdss ([7]; dose 10 mg/kg) was 0.7 mL/g and the t1/2 ([7]; dose 10 mg/kg) was 13.0 h. For the same compound, the Cltot ([7]; in vivo, 10 mg/kg) was 0.04 mL/g/h and the fraction unbound at 10 min, 10 µM [8] was 0.35.
In the case of `CN/C(=N/CCSCc1nc[nH]c1C)NC#N` [cimetidine], the “Inhibition of 7-ethoxycoumarin deethylation in the silkworm midgut (in words)” value (cytochrome P450 [9]) is reported as “inhibited this reaction in the midgut”.
With `CC(C)OC(OC(C)C)C1CSC(c2nc3ccc(O)cc3s2)=N1` (centres unmarked) [Luciferin-IPA] the “Production of luciferin (RFU/organ)” value (cytochrome P450 [4]) was 198,000 RFU/organ.
